Assay results published in US5705508A, “Anti-tumor compounds, pharmaceutical compositions, methods for preparation thereof and for treatment” (priority 1995, dated 1998).
Entries after “also recorded” stand apart in the source; their conditions may differ. Read-outs that look alike come from different tables or passages of the source.

Assays:
[1] = aqueous media, cited from earlier work
A121 (ovarian cancer) = assay: Anticancer activity, inhibition of cell proliferation, A121 (ovarian); type: cell-based; conditions: Homo sapiens
Method: (§1) Compounds SB-T-101131, SB-T-101133, SB-T-101134, SB-T-10114, SB-T-101141, SB-T-101142, SB-T-101143, SB-T-101144, SB-T-101146, SB-T-101151 and SB-T-101161 were prepared according to the protocols described in Examples 59 and 60 above. These compounds were evaluated for cancer activity against human cancer cell lines of A121 (ovarian cancer), A549 (non-small cell lung cancer), HT-29 (colon cancer), MCF7 (breast cancer), and MCF7-R (adriamycin resistant breast cancer). Table 1 below illustrates the activity of these compounds as IC50 values in a nM concentration.
(§2) […] ACTIVITY OF NEW TAXANES (IC50 nM).
(§3) ^a IC50 represents the concentration that inhibits 50% of cell
(§4) proliferation. ^b MCF7R = mammary carcinoma cells 180 fold resistant
(§5) The cytotoxicities of the new taxanes shown in FIG. 1 hereto and listed in Table 1 were evaluated in vitro against human cancer cell lines according to methods more particularly described in Ojima, I., et al., "Structure--Activity Relationships of New Taxoids Derived from 14β-Hydroxy-10-Deacetyl/Baccatin III," Journal of Medicinal Chemistry, 37, 1408-1410 (1994) and Ojima, I., et al., "Synthesis and Biological Activity of 14-hydroxydocetaxel," Bioorganic and Medicinal Chemistry Letters, 4, 1571-1576 (1994) the contents of which are incorporated herein by reference as if set forth in full.

[2] = tested on: A549 (non-small cell lung cancer); assay: Anticancer activity, inhibition of cell proliferation, A549 (NSCLC); type: cell-based; conditions: Homo sapiens
Method: as §1, §2, §3, §4, §5

HT-29 (colon cancer) = assay: Anticancer activity, inhibition of cell proliferation, HT-29 (colon); type: cell-based; conditions: Homo sapiens
Method: as §1, §2, §3, §4, §5

MCF7 (breast cancer) = assay: Anticancer activity, inhibition of cell proliferation, MCF7 (breast); type: cell-based; conditions: Homo sapiens
Method: as §1, §2, §3, §4, §5

[3] = clinical trials; cited from earlier work
different cancers = conditions: background statement; cited from earlier work
[4] = compared with Taxol; listed as Taxotere; cited from earlier work
[5] = tested on: MCF7-R (adriamycin resistant breast cancer); assay: Anticancer activity, inhibition of cell proliferation, MCF7-R (adriamycin resistant breast); type: cell-based; conditions: Homo sapiens, MCF7R, read-out: IC50, MCF7-R
Method: as §1, with “cancer).” for “cancer). Table 1 below illustrates the activity of these compounds as IC50 values in a nM concentration.”
as §3, §4, §5

[6] = concentration that inhibits 50% of cell proliferation, A121 (ovarian), read-out: IC50, A121 (ovarian)
[7] = concentration that inhibits 50% of cell proliferation, A549 (NSCLC), read-out: IC50, A549 (NSCLC)
[8] = concentration that inhibits 50% of cell proliferation, HT-29 (colon), read-out: IC50, HT-29 (colon)
[9] = concentration that inhibits 50% of cell proliferation, MCF7 (breast), read-out: IC50, MCF7 (breast)
[10] = concentration that inhibits 50% of cell proliferation, mammary carcinoma cells 180 fold resistant to adriamycin

SMILES	IC50 (A121 (ovarian cancer); [6]) [nM]	IC50 [2, 7] [nM]	IC50 (HT-29 (colon cancer); [8]) [nM]	IC50 (MCF7 (breast cancer); [9]) [nM]	IC50 [5, 10] [nM]	other results
CC(=O)O[C@@]12CO[C@@H]1C[C@H](O)[C@@]1(C)C(=O)[C@H](O)C3=C(C)[C@@H](O)[C@H](O)[C@@](O)([C@@H](OC(=O)c4ccccc4)[C@H]21)C3(C)C [14-OH-DAB, 14-Hydroxy-10-deacetylbaccatin III]						water solubility [1]: much higher water solubility than the usual 10-deacetylbaccatin III
CC(=O)O[C@@]12CO[C@@H]1C[C@H](O)[C@@]1(C)C(=O)[C@H](O)C3=C(C)[C@@H](OC(=O)[C@H](O)[C@@H](NC(=O)OC(C)(C)C)c4ccccc4)C[C@@](O)([C@@H](OC(=O)c4ccccc4)[C@H]21)C3(C)C [Docetaxel]	1.2	1	1.2	1		water solubility [1]: somewhat improved water solubility; side effects [3]: mouth sores and a plunge in white blood cell count; cytotoxicity and antitumor activity (different cancers): antitumor activity superior to Taxol; bioavailability / pharmacological properties [4]: better pharmacological properties than Taxol; also recorded: better bioavailability
CC(=O)O[C@H]1C(=O)[C@@]2(C)[C@H]([C@H](OC(=O)c3ccccc3)[C@]3(O)C[C@H](OC(=O)[C@H](O)[C@@H](NC(=O)c4ccccc4)c4ccccc4)C(C)=C1C3(C)C)[C@]1(OC(C)=O)CO[C@@H]1C[C@@H]2O [Paclitaxel, reference compound]	6.1	3.6	3.2	1.7	300	water solubility ([1]; listed as Taxol): limited solubility in aqueous media; also recorded: poor water solubility; side effects [3]: nerve damage, muscle pain or disturbances in heart rhythm; cytotoxicity and antitumor activity (different cancers): high cytotoxicity and strong antitumor activity
CC(=O)OC12COC1CC(O)C1(C)C(=O)C(O)C3=C(C)C(OC(=O)C(O)C(C=C(C)C)NC(=O)OC(C)(C)C)C4OC(=O)OC4(C(OC(=O)c4ccccc4)C21)C3(C)C (stereo not drawn) [SB-T-10114]	1.7	0.2	0.5	0.5	54	
CC(=O)O[C@H]1C(=O)[C@@]2(C)[C@H]([C@H](OC(=O)c3ccccc3)[C@]34OC(=O)O[C@H]3[C@H](OC(=O)[C@H](O)[C@H](CC(C)C)NC(=O)OC(C)(C)C)C(C)=C1C4(C)C)[C@]1(OC(C)=O)CO[C@@H]1C[C@@H]2O [SB-T-101131]	1.2	0.7	1.5	1.1	36	
CC(=O)OC12COC1CC(O)C1(C)C(=O)C(OC(=O)C3CC3)C3=C(C)C(OC(=O)C(O)C(CC(C)C)NC(=O)OC(C)(C)C)C4OC(=O)OC4(C(OC(=O)c4ccccc4)C21)C3(C)C (stereo not drawn) [SB-T-101133]	1.1	1.2	3.3	0.7	22	
CC(=O)OC12COC1CC(O)C1(C)C(=O)C(OC(=O)N(C)C)C3=C(C)C(OC(=O)C(O)C(CC(C)C)NC(=O)OC(C)(C)C)C4OC(=O)OC4(C(OC(=O)c4ccccc4)C21)C3(C)C (stereo not drawn) [SB-T-101134]						IC50 (A121 (ovarian cancer); A121, read-out: IC50, A121 (ovarian)): 0.6 nM; IC50 ([2]; A549, read-out: IC50, A549 (NSCLC)): 0.6 nM; IC50 (HT-29 (colon cancer); HT-29, read-out: IC50, HT-29 (colon)): 1.3 nM; IC50 (MCF7 (breast cancer); MCF7, read-out: IC50, MCF7 (breast)): 0.6 nM; IC50 [5]: 22 nM
CC(=O)OC1C(=O)C2(C)C(O)CC3OCC3(OC(C)=O)C2C(OC(=O)c2ccccc2)C23OC(=O)OC2C(OC(=O)C(O)C(C=C(C)C)NC(=O)OC(C)(C)C)C(C)=C1C3(C)C (stereo not drawn) [SB-T-101141]	1.5	1.4	2.4	3.3	36	
CCC(=O)OC1C(=O)C2(C)C(O)CC3OCC3(OC(C)=O)C2C(OC(=O)c2ccccc2)C23OC(=O)OC2C(OC(=O)C(O)C(C=C(C)C)NC(=O)OC(C)(C)C)C(C)=C1C3(C)C (stereo not drawn) [SB-T-101142]	0.7	0.5	0.6	0.1	21	
CC(=O)OC12COC1CC(O)C1(C)C(=O)C(OC(=O)C3CC3)C3=C(C)C(OC(=O)C(O)C(C=C(C)C)NC(=O)OC(C)(C)C)C4OC(=O)OC4(C(OC(=O)c4ccccc4)C21)C3(C)C (stereo not drawn) [SB-T-101143]	0.5	0.5	1	0.2	24	
CC(=O)OC12COC1CC(O)C1(C)C(=O)C(OC(=O)N(C)C)C3=C(C)C(OC(=O)C(O)C(C=C(C)C)NC(=O)OC(C)(C)C)C4OC(=O)OC4(C(OC(=O)c4ccccc4)C21)C3(C)C (stereo not drawn) [SB-T-101144]	0.7	0.6	1.2	0.2	22	
COC(=O)OC1C(=O)C2(C)C(O)CC3OCC3(OC(C)=O)C2C(OC(=O)c2ccccc2)C23OC(=O)OC2C(OC(=O)C(O)C(C=C(C)C)NC(=O)OC(C)(C)C)C(C)=C1C3(C)C (stereo not drawn) [SB-T-101146]	0.6	0.5	0.7	0.3	38	
CC=CC(NC(=O)OC(C)(C)C)C(O)C(=O)OC1C(C)=C2C(OC(C)=O)C(=O)C3(C)C(O)CC4OCC4(OC(C)=O)C3C(OC(=O)c3ccccc3)C3(OC(=O)OC13)C2(C)C (stereo not drawn) [SB-T-101151]	2.4	0.4	3	1.6	49	
CC(=O)OC1C(=O)C2(C)C(O)CC3OCC3(OC(C)=O)C2C(OC(=O)c2ccccc2)C23OC(=O)OC2C(OC(=O)C(O)C(NC(=O)OC(C)(C)C)c2ccco2)C(C)=C1C3(C)C (stereo not drawn) [SB-T-101161]	0.4	0.5	0.6	0.5	58	
